Test results from ChEMBL document CHEMBL1201862, “PubChem BioAssay data set” (2004).
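Tested at 5 concentrations; 48 h exposure; 96-well plates; endpoints linearly interpolated, else capped at highest concentration. GI50 = concentration required for 50% inhibition of growth.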 Active and inactive are the calls of the source. Rule as the data show it: active = GI50 up to about 1.1 µM and inactive = higher.

How the values were obtained:
Assay in all cases: growth of human tumour cells (NCI), 48 h
MDA-MB-231 = test system: MDA-MB-231
NCI-H522 = test system: NCI-H522
SK-MEL-5 = test system: SK-MEL-5
MDA-N = test system: MDA-N
Hs-578T = test system: Hs-578T
SF-295 = test system: SF-295
IGROV-1 = test system: IGROV-1
BT-549 = test system: BT-549
EKVX = test system: EKVX
NCI/ADR-RES = test system: NCI/ADR-RES
786-0 = test system: 786-0
Malme-3M = test system: Malme-3M
UACC-257 = test system: UACC-257
SF-539 = test system: SF-539
HT-29 = test system: HT-29
UACC-62 = test system: UACC-62
SNB-75 = test system: SNB-75
OVCAR-3 = test system: OVCAR-3
SK-OV-3 = test system: SK-OV-3
A549 = test system: A549
SF-268 = test system: SF-268
MOLT-4 = test system: MOLT-4
U-251 = test system: U-251
OVCAR-8 = test system: OVCAR-8
HCT-116 = test system: HCT-116
T47D = test system: T47D
ACHN = test system: ACHN
SK-MEL-2 = test system: SK-MEL-2
CCRF-CEM = test system: CCRF-CEM
HL-60 = test system: HL-60
K562 = test system: K562
HOP-62 = test system: HOP-62
A498 = test system: A498
PC-3 = test system: PC-3
SW-620 = test system: SW-620
DU-145 = test system: DU-145
KM12 = test system: KM12
OVCAR-5 = test system: OVCAR-5
M14 = test system: M14
LOX IMVI = test system: LOX IMVI
OVCAR-4 = test system: OVCAR-4
NCI-H460 = test system: NCI-H460
HCC 2998 = test system: HCC 2998
SNB-19 = test system: SNB-19
COLO 205 = test system: COLO 205
NCI-H23 = test system: NCI-H23
HOP-92 = test system: HOP-92
HCT-15 = test system: HCT-15
RXF 393 = test system: RXF 393
CAKI-1 = test system: CAKI-1
SK-MEL-28 = test system: SK-MEL-28
TK-10 = test system: TK-10
SN12C = test system: SN12C
MDA-MB-435 = test system: MDA-MB-435
UO-31 = test system: UO-31
MCF7 = test system: MCF7
RPMI-8226 = test system: RPMI-8226
SR = test system: SR

CCOC(=O)c1c[nH]cc1-c1cn(S(=O)(=O)c2ccccc2)cc1C
GI50 (MDA-MB-231): 20.5 µM (inactive) | GI50 (NCI-H522): 15.6 µM (inactive) | GI50 (SK-MEL-5): > 10 µM (inactive) | GI50 (MDA-N): 17.9 µM (inactive) | GI50 (Hs-578T): 11.9 µM (inactive) | GI50 (SF-295): 33.7 µM (inactive) | GI50 (IGROV-1): 26.9 µM (inactive) | GI50 (BT-549): 27.1 µM (inactive) | GI50 (EKVX): 14.6 µM (inactive) | GI50 (NCI/ADR-RES): 22.2 µM (inactive) | GI50 (786-0): 37.1 µM (inactive) | GI50 (Malme-3M): 15 µM (inactive) | GI50 (UACC-257): 17.1 µM (inactive) | GI50 (SF-539): 21.9 µM (inactive) | GI50 (HT-29): 21.2 µM (inactive) | GI50 (UACC-62): 15.3 µM (inactive) | GI50 (SNB-75): 15.3 µM (inactive) | GI50 (OVCAR-3): 18.8 µM (inactive) | GI50 (SK-OV-3): 25.9 µM (inactive) | GI50 (A549): 30.5 µM (inactive) | GI50 (SF-268): 25.9 µM (inactive) | GI50 (MOLT-4): 20.4 µM (inactive) | GI50 (U-251): 25.6 µM (inactive) | GI50 (OVCAR-8): 28.7 µM (inactive) | GI50 (HCT-116): 21.6 µM (inactive) | GI50 (T47D): 18.2 µM (inactive) | GI50 (ACHN): 18.9 µM (inactive) | GI50 (SK-MEL-2): 32.2 µM (inactive) | GI50 (CCRF-CEM): 24.9 µM (inactive) | GI50 (HL-60): 26.2 µM (inactive) | GI50 (K562): 19.1 µM (inactive) | GI50 (HOP-62): 31.5 µM (inactive) | GI50 (A498): > 10 µM (inactive) | GI50 (PC-3): 18.6 µM (inactive) | GI50 (SW-620): > 10 µM (inactive) | GI50 (DU-145): 50.7 µM (inactive) | GI50 (KM12): 19.6 µM (inactive) | GI50 (OVCAR-5): 52.7 µM (inactive) | GI50 (M14): 21.7 µM (inactive) | GI50 (LOX IMVI): 23.4 µM (inactive) | GI50 (OVCAR-4): 39.4 µM (inactive) | GI50 (NCI-H460): 18.4 µM (inactive) | GI50 (HCC 2998): 17.5 µM (inactive) | GI50 (SNB-19): 31.8 µM (inactive) | GI50 (COLO 205): 20.1 µM (inactive) | GI50 (NCI-H23): 24.6 µM (inactive) | GI50 (HOP-92): 26 µM (inactive) | GI50 (HCT-15): 22.9 µM | GI50 (RXF 393): 47.1 µM (inactive) | GI50 (CAKI-1): 17.7 µM (inactive) | GI50 (SK-MEL-28): 19.8 µM (inactive) | GI50 (TK-10): 35.6 µM (inactive) | GI50 (SN12C): 25.2 µM (inactive) | GI50 (MDA-MB-435): > 10 µM (inactive) | GI50 (UO-31): 27.5 µM (inactive) | GI50 (MCF7): 29 µM (inactive)

COC(=O)C1CC=C(SC(=O)c2ccccc2)N1C(=O)c1ccccc1 (centres undefined)
GI50 (MDA-MB-231): > 100 µM (inactive) | GI50 (NCI-H522): > 100 µM (inactive) | GI50 (SK-MEL-5): > 100 µM (inactive) | GI50 (MDA-N): > 100 µM (inactive) | GI50 (Hs-578T): > 100 µM (inactive) | GI50 (SF-295): > 100 µM (inactive) | GI50 (IGROV-1): > 100 µM (inactive) | GI50 (BT-549): > 100 µM (inactive) | GI50 (EKVX): > 100 µM (inactive) | GI50 (NCI/ADR-RES): > 100 µM (inactive) | GI50 (786-0): > 100 µM (inactive) | GI50 (Malme-3M): > 100 µM (inactive) | GI50 (UACC-257): > 100 µM (inactive) | GI50 (HT-29): > 100 µM (inactive) | GI50 (UACC-62): > 100 µM (inactive) | GI50 (SNB-75): 76 µM (inactive) | GI50 (OVCAR-3): > 100 µM (inactive) | GI50 (SK-OV-3): > 100 µM (inactive) | GI50 (A549): > 100 µM (inactive) | GI50 (SF-268): > 100 µM (inactive) | GI50 (MOLT-4): > 100 µM (inactive) | GI50 (U-251): > 100 µM (inactive) | GI50 (OVCAR-8): > 100 µM (inactive) | GI50 (HCT-116): > 100 µM (inactive) | GI50 (T47D): > 100 µM (inactive) | GI50 (ACHN): > 100 µM (inactive) | GI50 (SK-MEL-2): > 100 µM (inactive) | GI50 (K562): > 100 µM (inactive) | GI50 (HOP-62): > 100 µM (inactive) | GI50 (A498): > 100 µM (inactive) | GI50 (PC-3): > 100 µM (inactive) | GI50 (SW-620): > 100 µM (inactive) | GI50 (DU-145): > 100 µM (inactive) | GI50 (KM12): > 100 µM (inactive) | GI50 (OVCAR-5): > 100 µM (inactive) | GI50 (M14): > 100 µM (inactive) | GI50 (OVCAR-4): > 100 µM (inactive) | GI50 (NCI-H460): 39.6 µM (inactive) | GI50 (HCC 2998): > 100 µM (inactive) | GI50 (SNB-19): > 100 µM (inactive) | GI50 (COLO 205): > 100 µM (inactive) | GI50 (NCI-H23): > 100 µM (inactive) | GI50 (RPMI-8226): > 100 µM (inactive) | GI50 (HOP-92): > 100 µM (inactive) | GI50 (HCT-15): > 100 µM | GI50 (RXF 393): > 100 µM (inactive) | GI50 (CAKI-1): > 100 µM (inactive) | GI50 (SK-MEL-28): > 100 µM (inactive) | GI50 (TK-10): > 100 µM (inactive) | GI50 (MDA-MB-435): > 100 µM (inactive) | GI50 (UO-31): > 100 µM (inactive) | GI50 (MCF7): > 100 µM (inactive)

C=C1c2ccccc2C(=O)c2c1c1c(C(=O)OC)c(O)ccc1n2Cc1ccccc1
GI50 (MDA-MB-231): 0.355 µM (active) | GI50 (NCI-H522): 0.237 µM (active) | GI50 (SK-MEL-5): 0.7 µM (active) | GI50 (MDA-N): 0.32 µM (active) | GI50 (Hs-578T): 0.297 µM (active) | GI50 (SF-295): 0.574 µM (active) | GI50 (IGROV-1): 0.234 µM (active) | GI50 (BT-549): 0.585 µM (active) | GI50 (EKVX): 0.9 µM (active) | GI50 (NCI/ADR-RES): 0.235 µM (active) | GI50 (786-0): 0.197 µM (active) | GI50 (Malme-3M): 0.445 µM (active) | GI50 (UACC-257): 1.71 µM (inactive) | GI50 (SF-539): 0.228 µM (active) | GI50 (HT-29): 0.163 µM (active) | GI50 (UACC-62): 0.284 µM (active) | GI50 (SNB-75): 0.264 µM (active) | GI50 (OVCAR-3): 0.151 µM (active) | GI50 (SK-OV-3): 0.346 µM (active) | GI50 (A549): 1.11 µM (active) | GI50 (SF-268): 0.175 µM (active) | GI50 (MOLT-4): 0.219 µM (active) | GI50 (U-251): 0.333 µM (active) | GI50 (OVCAR-8): 0.245 µM (active) | GI50 (HCT-116): 0.557 µM (active) | GI50 (T47D): 0.653 µM (active) | GI50 (ACHN): 0.454 µM (active) | GI50 (SK-MEL-2): 0.817 µM (active) | GI50 (CCRF-CEM): 0.203 µM (active) | GI50 (HL-60): 0.265 µM (active) | GI50 (K562): 0.323 µM (active) | GI50 (HOP-62): 0.516 µM (active) | GI50 (PC-3): 0.437 µM (active) | GI50 (SW-620): 0.342 µM (active) | GI50 (DU-145): 0.242 µM (active) | GI50 (KM12): 0.459 µM (active) | GI50 (OVCAR-5): 1.1 µM (active) | GI50 (M14): 0.314 µM (active) | GI50 (LOX IMVI): 0.297 µM (active) | GI50 (OVCAR-4): 0.558 µM (active) | GI50 (NCI-H460): 0.908 µM (active) | GI50 (SR): 0.132 µM (active) | GI50 (SNB-19): 0.35 µM (active) | GI50 (COLO 205): 1.97 µM (inactive) | GI50 (NCI-H23): 0.713 µM (active) | GI50 (RPMI-8226): 0.175 µM (active) | GI50 (HOP-92): < 0.01 µM (active) | GI50 (HCT-15): 0.232 µM | GI50 (RXF 393): 0.267 µM (active) | GI50 (CAKI-1): 0.407 µM (active) | GI50 (SK-MEL-28): 0.31 µM (active) | GI50 (TK-10): 0.459 µM (active) | GI50 (SN12C): 0.312 µM (active) | GI50 (MDA-MB-435): 0.255 µM (active) | GI50 (UO-31): 0.512 µM (active) | GI50 (MCF7): 0.249 µM (active)
